These results are taken from patent publication US20260317324A1, “BIFUNCTIONAL COMPOUNDS FOR DEGRADING BRAF VIA UBIQUITIN PROTEOSOME PATHWAY” (Nurix Therapeutics, Inc., priority 2023, published 2026).

Assay type in all cases: cell-based
Experiment [1] concerns the target T1, BRAF V600E (Homo sapiens, UniProt P15056, V600E).
T1 construct: endogenous C-terminal HiBiT fusion tag on BRAF V600E allele; endogenous in cells; host or cells: A375 clone 1F10 (CRISPR-Cas9 knock-in of the HiBiT tag; parental A375 from ATCC)
The experiment can be described thus: BRAF HiBiT degradation assay, C-terminal HiBiT-tagged BRAF V600E A375 cells (clone 1F10), Nano-Glo HiBiT Lytic assay. To be noted: for Dmax: A-375. The method, boiled down:
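Luminescence from the Nano-Glo HiBiT lytic read-out gave % BRAF V600E remaining versus DMSO-treated tagged cells, with untagged A375 as background. Clone 1F10 cells (10,000/well, 24 h pre-culture) received compound at 1 μM–0.01 nM in half-log steps, 0.2% DMSO; curve fits gave DC50 at Y=50, plus observed Dmax.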
A general note: The HiBiT peptide binds its large partner to form an active luciferase.

The target of experiment [2] is T2, BRAF G469A (Homo sapiens, UniProt P15056, G469A).
T2 construct: Horizon Discovery (HCT-116 BRAF−/− cells); host or cells: HCT-116 BRAF−/− cells, clone 34, lentiviral transduction
T2 sequence (P15056 whole entry G469A): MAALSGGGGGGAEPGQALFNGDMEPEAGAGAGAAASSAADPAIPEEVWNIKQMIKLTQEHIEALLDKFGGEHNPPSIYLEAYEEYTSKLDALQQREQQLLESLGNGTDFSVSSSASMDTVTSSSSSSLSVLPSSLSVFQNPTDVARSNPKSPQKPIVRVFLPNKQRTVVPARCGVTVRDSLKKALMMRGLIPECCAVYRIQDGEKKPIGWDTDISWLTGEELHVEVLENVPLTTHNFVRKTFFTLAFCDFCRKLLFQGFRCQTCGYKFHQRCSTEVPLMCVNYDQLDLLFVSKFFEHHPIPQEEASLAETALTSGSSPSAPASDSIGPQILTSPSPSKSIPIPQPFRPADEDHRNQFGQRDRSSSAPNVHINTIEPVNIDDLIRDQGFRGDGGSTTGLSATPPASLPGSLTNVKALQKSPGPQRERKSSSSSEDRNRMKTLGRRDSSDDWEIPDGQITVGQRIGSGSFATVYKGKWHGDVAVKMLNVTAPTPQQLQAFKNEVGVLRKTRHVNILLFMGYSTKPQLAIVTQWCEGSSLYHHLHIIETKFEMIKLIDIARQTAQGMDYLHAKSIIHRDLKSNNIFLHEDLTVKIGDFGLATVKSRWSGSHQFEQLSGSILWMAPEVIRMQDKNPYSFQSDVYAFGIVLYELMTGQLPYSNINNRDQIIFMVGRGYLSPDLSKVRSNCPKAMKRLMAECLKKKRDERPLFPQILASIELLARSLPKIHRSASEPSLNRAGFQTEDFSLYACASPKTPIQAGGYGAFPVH
The experiment can be described thus: BRAF HiBiT degradation assay, C-terminal HiBiT-tagged BRAF G469A overexpressed in HCT-116 BRAF−/− cells (clone 34), Nano-Glo HiBiT Lytic assay. In a few lines: (§1)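 Degradation was read by Nano-Glo HiBiT lytic luminescence, normalised to DMSO-treated tagged cells with wildtype HCT-116 as background. Test cells were lentiviral clones of HCT-116 BRAF−/− carrying HiBiT-tagged mutants in RPMI/10% FBS, given compound at 0.01 nM–1 μM in duplicate. Outputs are the curve-fitted concentration giving 50% degradation and the maximal observed degradation.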

Experiment [3] deals with T3, BRAF D594G (Homo sapiens, UniProt P15056, D594G).
T3 construct: Horizon Discovery (HCT-116 BRAF−/− cells); host or cells: HCT-116 BRAF−/− cells, clone 63, lentiviral transduction
T3 sequence (P15056 whole entry D594G): as the sequence (P15056 whole entry G469A) above, with A469G, D594G counted along it
Kind of experiment: BRAF HiBiT degradation assay, C-terminal HiBiT-tagged BRAF D594G overexpressed in HCT-116 BRAF−/− cells (clone 63), Nano-Glo HiBiT Lytic assay. In a few lines: as §1

Experiment [4] has as its target T4, BRAF G466V (Homo sapiens, UniProt P15056, G466V).
T4 construct: Horizon Discovery (HCT-116 BRAF−/− cells); host or cells: HCT-116 BRAF−/− cells, clone 8, lentiviral transduction
The experiment can be described thus: BRAF HiBiT degradation assay, C-terminal HiBiT-tagged BRAF G466V overexpressed in HCT-116 BRAF−/− cells (clone 8), Nano-Glo HiBiT Lytic assay. In a few lines: as §1

The mark [5] stands for this setting: A375 (BRAF V600E, Class 1), DC50 at 50% degradation.
The mark [6] stands for this setting: A375 (BRAF V600E, Class 1), observed Dmax, % protein degraded relative to DMSO control.
Setting [7] is: BRAF G469A (Class 2), HCT-116 BRAF−/− cells, DC50 at 50% degradation.
The mark [8] stands for this setting: BRAF G469A (Class 2), HCT-116 BRAF−/− cells, observed Dmax relative to DMSO control.
[9] abbreviates: BRAF D594G (Class 3), HCT-116 BRAF−/− cells, DC50 at 50% degradation.
[10] abbreviates: BRAF D594G (Class 3), HCT-116 BRAF−/− cells, observed Dmax relative to DMSO control.
[11] abbreviates: BRAF G466V (Class 3), HCT-116 BRAF−/− cells, DC50 at 50% degradation.
The mark [12] stands for this setting: BRAF G466V (Class 3), HCT-116 BRAF−/− cells, observed Dmax relative to DMSO control.

Bounds are passed on as bounds.

T1 sequence (P15056 whole entry V600E, the tested form may be a part): as the sequence (P15056 whole entry G469A) above, with A469G, V600E counted along it
T4 sequence (P15056 whole entry G466V): as the sequence (P15056 whole entry G469A) above, with G466V, A469G counted along it

For `CCCS(=O)(=O)Nc1cccc(-c2nc(-c3ccc(N4CCN(CC5CCN(c6ccc([C@H]7CCC(=O)NC7=O)cc6)CC5)CC4)cc3)sc2-c2ccnc(N)n2)c1F` [Compound 191, N-{3-[5-(2-aminopyrimidin-4-yl)-2-(4-{4-[(1-{4-[(3R)-2,6-dioxopiperidin-3-yl]phenyl}piperidin-4-yl)methyl]piperazin-1-yl}phenyl)-1,3-thiazol-4-yl]-2-fluorophenyl}propane-1-sulfonamide], the DC50 was < 10 nM in experiment [1] (A375 (BRAF V600E), DC50 at 50%: fitted conc. at Y=50); > 500 nM in experiment [2] (Class 2, BRAF G469A, DC50 at 50%: fitted conc. at Y=50); > 500 nM in experiment [3] (BRAF D594G, DC50 at 50%: fitted conc. at Y=50); 10 to 50 nM in experiment [4] (BRAF G466V, DC50 at 50%: fitted conc. at Y=50). The Dmax in experiment [1] (A375 (BRAF V600E), percentage protein degraded at maximal compound effect relative to DMSO) is > 70%; in experiment [2] (HCT-116, Class 2, BRAF G469A, percentage protein degraded at maximal compound effect relative to DMSO) it was 30 to 70%; in experiment [3] (HCT-116, BRAF D594G, percentage protein degraded at maximal compound effect relative to DMSO), 30 to 70%; in experiment [4] (HCT-116, BRAF G466V, percentage protein degraded at maximal compound effect relative to DMSO), 30 to 70%.
For `CCN(C)S(=O)(=O)Nc1cc(Cl)cc(-c2cn(-c3ccc(N4CCN(CC5CCN(c6ccc(C7CCC(=O)NC7=O)cn6)CC5)CC4)cc3)nc2-c2ccncc2)c1F` (racemic) [Compound 308, Rac-(3R)-3-(6-{4-[(4-{4-[4-(5-chloro-3-{[ethyl(methyl)sulfamoyl]amino}-2-fluorophenyl)-3-(pyridin-4-yl)-1H-pyrazol-1-yl]phenyl}piperazin-1-yl)methyl]piperidin-1-yl}pyridin-3-yl)piperidine-2,6-dione], the DC50 was < 10 nM in experiment [1] (setting [5]), 10 to 50 nM in experiment [2] (setting [7]), < 10 nM in experiment [3] (setting [9]) and < 10 nM in experiment [4] (setting [11]). Also, the greatest degradation seen (Dmax) in experiment [1] (setting [6]), in experiment [2] (setting [8]), in experiment [3] (setting [10]) and in experiment [4] (setting [12]) was > 70% each time.
As to `CCCS(=O)(=O)Nc1cccc(-c2nc(C3CCN(C(=O)C4CCN(CC5CCN(c6ccc(C7CCC(=O)NC7=O)cn6)CC5)CC4)CC3)sc2-c2ccnc(N)n2)c1F` (racemic) [Compound 261, Rac-N-{3-[5-(2-aminopyrimidin-4-yl)-2-(1-{1-[(1-{5-[(3R)-2,6-dioxopiperidin-3-yl]pyridin-2-yl}piperidin-4-yl)methyl]piperidine-4-carbonyl}piperidin-4-yl)-1,3-thiazol-4-yl]-2-fluorophenyl}propane-1-sulfonamide], the DC50 in experiment [1] (setting [5]) is < 10 nM; in experiment [2] (setting [7]), > 500 nM; in experiment [3] (setting [9]), > 500 nM; in experiment [4] (setting [11]), 50 to 500 nM. The Dmax is > 70% in experiment [1] (setting [6]), 30 to 70% in experiment [2] (setting [8]), 30 to 70% in experiment [3] (setting [10]) and 30 to 70% in experiment [4] (setting [12]).
For `O=C1CCN(c2ccc(N3CCC(CN4CCN(c5ccc(-n6cc(-c7cc(Cl)cc(NS(=O)(=O)N8CCCC8)c7F)c(-c7ccncc7)n6)cc5F)CC4)CC3)cc2)C(=O)N1` [Compound 361, N-[5-chloro-3-(1-{4-[4-({1-[4-(2,4-dioxo-1,3-diazinan-1-yl)phenyl]piperidin-4-yl}methyl)piperazin-1-yl]-3-fluorophenyl}-3-(pyridin-4-yl)-1H-pyrazol-4-yl)-2-fluorophenyl]pyrrolidine-1-sulfonamide], the DC50 in experiment [1] (setting [5]) was < 10 nM; in experiment [2] (setting [7]), > 500 nM; in experiment [3] (setting [9]) it was < 10 nM; in experiment [4] (setting [11]), < 10 nM. The Dmax was > 70% in experiment [1] (setting [6]), 30 to 70% in experiment [2] (setting [8]), 30 to 70% in experiment [3] (setting [10]) and > 70% in experiment [4] (setting [12]).
Take `O=C1CCC(N2C(=O)c3ccc(N4CC(CN5CC(c6ccc(-n7cc(-c8ccc9c(c8)CC/C9=N/O)c(-c8ccncc8)n7)cc6)C5)C4)cc3C2=O)C(=O)N1` (racemic) [Compound 262, Rac-2-[(3R)-2,6-dioxopiperidin-3-yl]-5-(3-{[3-(4-{4-[(1Z)-1-(hydroxyimino)-2,3-dihydro-1H-inden-5-yl]-3-(pyridin-4-yl)-1H-pyrazol-1-yl}phenyl)azetidin-1-yl]methyl}azetidin-1-yl)-2,3-dihydro-1H-isoindole-1,3-dione]: the DC50 in experiment [1] (setting [5]) is < 10 nM; in experiment [2] (setting [7]), > 500 nM; in experiment [3] (setting [9]) it was > 500 nM; in experiment [4] (setting [11]), > 500 nM. Also, the Dmax in experiment [1] (setting [6]) was > 70%; in experiment [2] (setting [8]), < 30%; in experiment [3] (setting [10]) it was < 30%; in experiment [4] (setting [12]), < 30%.

Usually DC50 stands for the concentration at which degradation of the target reaches its halfway point. Lower therefore signals a more potent degrader. What is called Dmax is the greatest extent of degradation seen. A higher Dmax goes with deep degradation.
